Results reported in ChEMBL document CHEMBL3044558, “Structure-activity relationship development of dihaloaryl triazole compounds as insecticides and acaricides. 1. Phenyl thiophen-2-yl triazoles” (2007).
Active and inactive are the calls of the source. The rule behind the calls is not given here.

What was measured:
[1] = system: Bemisia tabaci; assay: Insecticidal activity against Bemisia tabaci (sweet potato whitefly) second-instar larvae infested five weeks old cotton plants followed by compound 250 ppm compound spraying after insect oviposit assessed as insect mortality measured 13 days post compound treatment under green house conditions; type: functional
[2] = system: Spodoptera exigua; assay: Insecticidal activity against Spodoptera exigua second-instar larvae feeded on 400 ppm compound treated lepidopteran diet assessed as insect mortality measured 5 days post compound treatment under green house conditions; type: functional; conditions: at 400 ppm
[3] = system: Trichoplusia ni
[4] = system: Tetranychus urticae; assay: Insecticidal activity against female Tetranychus urticae (two-spotted spider mite) infested cotton leaf disks followed by 2.5 ppm compound spraying after oviposit assessed as insect mortality measured after 6 days post compound application under green house conditions; type: functional; conditions: foliar, 144 h
[5] = system: Aphis gossypii
[6] = system: Heliothis virescens
[7] = system: Trichoplusia ni; assay: Insecticidal activity against Trichoplusia ni (cabbage looper) second-instar larvae infested on 400 ppm compound pre-treated cabbage leaf disk assessed as insect mortality measured 5 days post compound treatment under green house conditions; type: functional; conditions: at 400 ppm
[8] = system: Tetranychus urticae
[9] = system: Bemisia tabaci
[10] = system: Heliothis virescens; assay: Insecticidal activity against Heliothis virescens (tobacco budworm) second-instar larvae infested on 400 ppm compound pre-treated cotton cotyledon disk assessed as insect mortality measured 5 days post compound treatment under green house conditions; type: functional
[11] = system: Aphis gossypii; assay: Insecticidal activity against Aphis gossypii (cotton aphid) infested one week old Crookneck squash plants assessed as insect mortality at 50 ppm measured after 3 days post compound application under green house conditions; type: functional; conditions: 72 h

Row | SMILES | mortality [1] [%] | mortality [2] [%] | mortality [3] | mortality at 2.5 ppm [4] [%] | mortality [5] | mortality [6] | mortality [7] [%] | mortality [8] | mortality [9] | mortality [10] [%] | mortality at 50 ppm [11] [%]
1 | Cc1c(-c2nc(-c3c(F)cccc3Cl)nn2C)sc(Cl)c1-c1ccc(OC(F)(F)F)cc1 | <50 | 90 | inactive | 90 | inactive | inactive |  |  |  |  | 
2 | Cc1cc(-c2ccc(Cl)c(Cl)c2)sc1-c1nc(-c2c(F)cccc2Cl)nn1C |  | 70 |  |  | inactive | inactive | 60 | inactive | inactive |  | 
3 | COc1ccc(-c2csc(-c3nc(-c4c(F)cccc4F)nn3C)c2)cc1 | 60 | 50 |  |  | inactive | inactive | 80 | inactive |  |  | 
4 | Cc1ccc(-c2sc(-c3nc(-c4c(F)cccc4Cl)nn3C)c(Cl)c2Cl)cc1 | 70 | 70 | inactive | 90 | inactive |  |  |  |  | 50 | 
5 | Cc1c(-c2nc(-c3c(F)cccc3Cl)nn2C)sc(Br)c1-c1ccc(OC(F)(F)C(F)Br)cc1 (stereo unspecified) | <50 | 80 | inactive | 90 |  |  |  |  |  | 90 | < 50
6 | Cc1c(-c2ccc(O)cc2)csc1-c1nc(-c2c(F)cccc2Cl)nn1C |  | <50 | inactive |  | inactive |  |  | inactive | inactive | <50 | 
7 | Cn1nc(-c2c(F)cccc2Cl)nc1-c1ccc(-c2cccc(OC(F)(F)F)c2)s1 |  | <50 |  |  | inactive | inactive | 80 | inactive | inactive |  | 
8 | Cc1c(-c2nc(-c3c(F)cccc3Cl)nn2C)sc(-c2ccc(OC(F)(F)F)cc2)c1Br |  | 90 |  | 90 | inactive | inactive | 90 |  | inactive |  | 
9 | Cc1c(-c2ccc(OC(F)(F)C(F)Br)cc2)csc1-c1nc(-c2c(F)cccc2Cl)nn1C (stereo unspecified) | 90 | 90 | inactive | 90 |  |  |  |  |  | 90 | 80
10 | COCCOc1cccc(-c2cc(C)c(-c3nc(-c4c(F)cccc4Cl)nn3C)s2)c1 |  | 80 |  | < 50 |  | inactive | 70 |  | inactive |  | < 50
11 | Cn1nc(-c2c(F)cccc2Cl)nc1-c1sc(-c2ccc(C(F)(F)F)cc2)c(Br)c1Cl |  | 90 | inactive | 90 |  |  |  |  | inactive | 90 | < 50
12 | Cn1nc(-c2c(F)cccc2Cl)nc1-c1cc(Br)c(-c2cccc(OC(F)(F)F)c2)s1 | <50 | <50 | inactive |  | inactive | inactive |  | inactive |  |  | 
13 | CCOc1ccc(-c2c(C)sc(-c3nc(-c4c(F)cccc4Cl)nn3C)c2C)cc1 | <50 | 80 | inactive | < 50 |  |  |  |  |  | 70 | < 50
14 | Cc1cc(-c2cccc(OC(F)(F)F)c2)sc1-c1nc(-c2c(F)cccc2Cl)nn1C | <50 | 80 |  |  | inactive |  | 90 | inactive |  | 90 | 
15 | CCOc1ccc(-c2cc(C)c(-c3nc(-c4c(F)cccc4Cl)nn3C)s2)cc1 | <50 | 80 | inactive | 90 | inactive |  |  |  |  | 60 | 
16 | Cc1cc(-c2ccncc2)sc1-c1nc(-c2c(F)cccc2Cl)nn1C |  | 70 |  |  | inactive |  | 90 | inactive | inactive | <50 | 
17 | Cc1cc(C2CCC(OC(=O)C(F)(F)Br)CC2)sc1-c1nc(-c2c(F)cccc2Cl)nn1C (stereo unspecified) |  | <50 | inactive |  | inactive | inactive |  | inactive |  |  | 
